System: late passage (P14) pancreatic-derived stromal cells
Assay: Trichostatin A 24 h time course, gene expression by Real-Time PCR (Example 3)
Assay type: cell-based, human
Details: 2.5 μM
Description: Human pancreatic-derived stromal cells were obtained according to the methods described in Example 13. Cells were seeded into a 24-well tissue culture plate at a density of 5000/cm^2 and cultured in DMEM containing 10% fetal bovine serum under standard cell culture conditions until confluent. After the cells reached confluency, 2.5 μM trichostatin A, diluted in DMSO and medium was added to the wells. Parallel cultures were treated with an equivalent concentration of DMSO as a vehicle control. RNA samples were obtained from treated cultures at 30 minutes, 1.5 hours, 3 hours, 6 hours, 12 hours and 24 hours following the addition of trichostatin A or DMSO. Culture medium was removed, the cells were washed with PBS, and RLT lysis buffer with β-mercaptoethanol (Qiagen) was added. RNA was purified using the RNeasy Mini Kit (Qiagen). RNA quantity and quality were determined using a spectrophotometer, and CDNA was made using the iScript cDNA synthesis kit (BioRad).
The expression levels of Sox17, HNF-3 beta, Pdx-1, insulin, and glucagon were determined by Real-Time PCR. Samples of 20 ng cDNA were used in each reaction, which was performed on the Applied Biosystems 7500 according to the methods described in Example 15. Data were analyzed using the accompanying software. Human pancreas cDNA was included as a positive control, and results were normalized against GAPDH expression levels.
Real-time PCR amplifcation and quantitative analysis. Unless otherwise stated, all reagents were purchased from Applied Biosystems. Real-time PCR reactions were performed using the ABI PRISM™ 7500 Sequence Detection System. TAQMAN™ FAST UNIVERSAL PCR MASTER MIX™ (ABI, CA) was used with 20 ng of reverse transcribed RNA in a total reaction volume of 20 μl. Each cDNA sample was run in duplicate to allow correction of pipetting errors. Primers and FAM-labeled TAQMAN™ probes were used at concentrations of 200 nM. The level of expression for each target gene was normalized using the pre-developed Applied Biosystem's human glyceraldehyde-3-phosphate dehydrogenase (GAPDH) endogenous control kit. Primers and probes were designed using either ABI PRISM PRIMER EXPRESS™ software or a pre-developed ABI gene analysis kit. For each gene, either one of the primers or the probe were designed to be exon-boundary spanning. This eliminated the possibility of the primers/probe binding to any genomic DNA present. The primer and probe sets are listed as follows: Pdx-1 (Hs00426216), Insulin (Hs00355773), glucagon (Hs00174967), and FoxA2 (HNF 3-beta) (Hs00232764). The remaining primers were designed using the PRIMERS program (ABI, CA). After an initial 95° C. incubation for 20 sec, samples were cycled 40 times in two stages: a denaturation step at 95° C. for 3 sec, followed by an annealing/extension step at 60° C. for 30 sec.
For each primer/probe set, a cycle time value was determined as the cycle number at which the fluorescence intensity of the PCR reaction reached a specific value in the middle of the exponential region of amplification. An increase in expression of a gene corresponded to a decrease in the number of cycles required for the fluorescence intensity to reach this value.

`CC(/C=C/C(=O)NO)=C\[C@@H](C)C(=O)c1ccc(N(C)C)cc1` [trichostatin A] was tested, and the HNF-3 beta gene expression (0.5 h) was “nd (not detectable at >40 cycles by RT-PCR)”, the Insulin gene expression (0.5 h) was “nd (not detectable at >40 cycles by RT-PCR)” and the PDX-1 gene expression (0.5 h) was “nd (not detectable at >40 cycles by RT-PCR)”. For the same molecule, the Sox17 gene expression (0.5 h) was “+ (detectable between 35 and 40 cycles by RT-PCR)”, the glucagon gene expression (0.5 h) was “nd (not detectable at >40 cycles by RT-PCR)” and the HNF-3 beta gene expression (1.5 h) was “nd (not detectable at >40 cycles by RT-PCR)”. The Insulin gene expression (1.5 h) was “nd (not detectable at >40 cycles by RT-PCR)”, the PDX-1 gene expression (1.5 h) was “nd (not detectable at >40 cycles by RT-PCR)” and the Sox17 gene expression (1.5 h) was “nd (not detectable at >40 cycles by RT-PCR)”. For the same molecule, the glucagon gene expression (1.5 h) was “nd (not detectable at >40 cycles by RT-PCR)”, the HNF-3 beta gene expression (3 h) was “nd (not detectable at >40 cycles by RT-PCR)” and the Insulin gene expression (3 h) was “nd (not detectable at >40 cycles by RT-PCR)”. For the same molecule, the PDX-1 gene expression (3 h) was “nd (not detectable at >40 cycles by RT-PCR)”, the Sox17 gene expression (3 h) was “+ (detectable between 35 and 40 cycles by RT-PCR)” and the glucagon gene expression (3 h) was “nd (not detectable at >40 cycles by RT-PCR)”. The “Sox-17 RT-PCR detection cycle” value (3 hours) was > 35 cycles, the HNF-3 beta gene expression (6 h) was “+ (detectable between 35 and 40 cycles by RT-PCR)” and the Insulin gene expression (6 h) was “nd (not detectable at >40 cycles by RT-PCR)”. For the same molecule, the PDX-1 gene expression (6 h) was “nd (not detectable at >40 cycles by RT-PCR)”, the Sox17 gene expression (6 h) was “+ (detectable between 35 and 40 cycles by RT-PCR)” and the glucagon gene expression (6 h) was “nd (not detectable at >40 cycles by RT-PCR)”. For the same molecule, the “HNF-3 beta RT-PCR detection cycle” value (6 hours) was > 35 cycles, the HNF-3 beta gene expression (12 h) was “+ (detectable between 35 and 40 cycles by RT-PCR)” and the Insulin gene expression (12 h) was “nd (not detectable at >40 cycles by RT-PCR)”. For the same molecule, the PDX-1 gene expression (12 h) was “+ (detectable between 35 and 40 cycles by RT-PCR)”, the Sox17 gene expression (12 h) was “+ (detectable between 35 and 40 cycles by RT-PCR)” and the glucagon gene expression (12 h) was “nd (not detectable at >40 cycles by RT-PCR)”. The “Pdx-1 RT-PCR detection cycle” value (12 hours) was > 35 cycles, the HNF-3 beta gene expression (24 h) was “+++ (detectable at less than 35 cycles by RT-PCR with std error less than 0.9)” and the Insulin gene expression (24 h) was “nd (not detectable at >40 cycles by RT-PCR)”. The PDX-1 gene expression (24 h) was “+++ (detectable at less than 35 cycles by RT-PCR with std error less than 0.9)”, the Sox17 gene expression (24 h) was “+++ (detectable at less than 35 cycles by RT-PCR with std error less than 0.9)” and the glucagon gene expression (24 h) was “+ (detectable between 35 and 40 cycles by RT-PCR)”. For the same molecule, the “HNF-3 beta RT-PCR detection cycle” value (24 hours) was < 35 cycles, the “HNF-3 beta gene expression relative to human pancreas” value (24 hours) was ~0.075 % of human pancreas and the “Pdx-1 RT-PCR detection cycle” value (24 hours) was < 35 cycles. For the same molecule, the “Pdx-1 gene expression relative to human pancreas” value (24 hours) was ~0.2 % of human pancreas levels, the “Sox-17 RT-PCR detection cycle” value (24 hours) was < 35 cycles and the “Sox-17 gene expression relative to human pancreas” value (24 hours) was ~3 % of human pancreas levels. For the same molecule, the “glucagon RT-PCR detection cycle” value (24 hours) was 35-40 cycles.

Source: patent US20080063628A1, “METHODS TO PROMOTE CELL DIFFERENTIATION” (priority 2006, published 2008)
